Read-outs that look alike come from different tables or passages of the source.
Legend:
[1] = tested on: Sephadex-included lung edema; assay: Sephadex-induced lung edema in rats (anti-inflammatory effect), glucocorticoid in liposomes instilled into left lung lobe; assay type: in vivo, Sprague Dawley rats; settings: for inhibition in vivo at 3.35 µmol/kg / inhibition in vivo at 0.335 µmol/kg / inhibition in vivo at 0.0335 µmol/kg / inhibition in vivo at 0.1 µmol/kg: Rattus norvegicus; for inhibition in vivo at 3.35 µmol/kg: 3350 nmol/kg instilled in left lung lobe; for reduction of edema in left lung / protection of left lung / block of left lung edema (in words) / activity in the other lung half (in words): summary of Table 1; for reduction of edema in left lung / protection of left lung / block of left lung edema (in words): locally treated left lung; for activity in the other lung half (in words): right lung compared with left; for inhibition in vivo at 0.0335 µmol/kg: 33.5 nmol/kg instilled in left lung lobe; for inhibition in vivo at 0.1 µmol/kg: 100 nmol/kg instilled in left lung lobe
From the text: (§1) Intratracheal instillation of Sephadex beads into rats leads to bronchial and also to alveolar inflammation. This provokes interstitial lung edema, which increases the lung weight, and the inflammation can be graded as the increase of the lung weight compared to a saline-instilled control group. The lung edema formation can be counteracted by pretreatment with glucocorticoids, preferably by local administration as intratracheal instillation or as inhalation. Ideally an anti-inflammatory action should be obtained only at the site of glucocorticoid application in the lung, but not in the rest of the body as this in long term treatment can lead to therapy limiting systemic side effects.
The differentiation between glucocorticoid actions in the treated lung region and outside this area can be tested in the following way.
(§2) Sprague Dawley rats (225 g) were slightly anaesthetized with ether and the glucocorticoid test preparation (in liposomes suspended in saline) in a volume of 0.5 ml/kg was instilled into just the left lung lobe. Two h later a suspension of Sephadex (5 mg/kg in a volume of […] was instilled in the trachea well above the bifurcation so that the suspension reached both the left and right lung lobes. Twenty h later the rats were killed and the left and right lung lobes dissected out and weighed separately. Also the spleen weight and the body weight gain over the 20 h were determined. Control groups got vehicle instead of glucocorticoid preparation and saline instead of Sephadex suspension to determine the weight of non-drug treated Sephadex edema and the normal lung weight as well as the normal spleen weight and body weight gain.
As stated above an ideal glucocorticoid preparation should have a very high glucocorticoid activity at the site of application in lung, but with low activity outside this area. Therefore, in the selected model an optimal preparation should more or less completely block the edema in the locally pretreated left lung lobe, but have much less activity in the right lung half and no significant inhibitory action on the spleen weight and the body weight gain. […] In the test protocol used, doses were selected leading to a more or less complete block of the edema in the left lung and at these dose levels the extent of the other activities was estimated. At the selected dose 7-9 rats were tested in parallel.

[2] = Spleen weight and body weight gain in the Sephadex lung edema test (systemic glucocorticoid action); assay type: in vivo, Sprague Dawley rats; set-up: Body weight gain in rel. to control: unit not given here; settings: for Body weight gain in rel. to control: over 20 h; for % inhib. compared to control group, spleen: spleen weight, 20 h after Sephadex; for reduction of body weight gain (in words) / reduction of spleen (in words): summary of Table 1
From the text: as §1, §2
As stated above an ideal glucocorticoid preparation should have a very high glucocorticoid activity at the site of application in lung, but with low activity outside this area. Therefore, in the selected model an optimal preparation should more or less completely block the edema in the locally pretreated left lung lobe, but have much less activity in the right lung half and no significant inhibitory action on the spleen weight and the body weight gain. It has been considered more important to search for a high degree of separation between the local activity (exemplified with the left lung) to the other activities than to search for a high absolute potency (high activity per mg drug) for the action in the left lung. In the test protocol used, doses were selected leading to a more or less complete block of the edema in the left lung and at these dose levels the extent of the other activities was estimated. At the selected dose 7-9 rats were tested in parallel. Mean±s.e.m. was calculated and compared with Student's t-test to the results of the corresponding Sephadex control group.

[3] = liposomes in saline, 2 h before Sephadex, 20 h readout, locally treated lobe, read-out: % inhib. compared to control group, left lobe
[4] = liposomes in saline, 2 h before Sephadex, 20 h readout, untreated lobe, read-out: % inhib. compared to control group, right lobe
[5] = 3350 nmol/kg instilled in left lung lobe, NS = not significant
[6] = 20 h, read-out: % inhib. compared to control group, left lobe
[7] = 20 h, read-out: % inhib. compared to control group, right lobe
[8] = 335 nmol/kg instilled in left lung lobe, NS = not significant
[9] = 335 nmol/kg instilled in left lung lobe, liposomes in saline, 2 h before Sephadex, 20 h readout, locally treated lobe, read-out: % inhib. compared to control group, left lobe
[10] = 335 nmol/kg instilled in left lung lobe, liposomes in saline, 2 h before Sephadex, 20 h readout, untreated lobe, read-out: % inhib. compared to control group, right lobe
[11] = 33.5 nmol/kg instilled in left lung lobe, NS = not significant
[12] = 100 nmol/kg instilled in left lung lobe

**Q.** What does the source list for `CCCCCCCCCCCCCCCC(=O)OCC(=O)[C@@]1(OC(=O)CC)[C@@H](C)C[C@H]2[C@@H]3CCC4=CC(=O)C=C[C@]4(C)[C@@]3(Cl)[C@@H](O)C[C@@]21C` [Beclomethasone-21-palmitate-17-propionate]?
**A.** inhibition in vivo at 3.35 µmol/kg [1, 3]: 87%; inhibition in vivo at 3.35 µmol/kg [1, 4]: 47%; reduction of edema in left lung / protection of left lung [1]: 87%; Body weight gain in rel. to control [2, 5]: -3.1; % inhib. compared to control group, spleen [2, 5]: 5%

**Q.** Which inhibition in vivo at 0.335 µmol/kg [1, 6] does the source give for `CCCCCCCCCCCCCCCC(=O)OCC(=O)[C@@]1(O)[C@@H](C)C[C@H]2[C@@H]3CCC4=CC(=O)C=C[C@]4(C)[C@@]3(F)[C@@H](O)C[C@@]21C` [Betamethasone-21-palmitate] here?
**A.** 109%

**Q.** And the inhibition in vivo at 0.335 µmol/kg [1, 7]?
**A.** -5%

**Q.** And the “Body weight gain in rel. to control” value [2, 8]?
**A.** 0.2

**Q.** And the “% inhib. compared to control group, spleen” value [2, 8]?
**A.** 7%

**Q.** Which results are given for `CCCCCCCCCCCCCCCC(=O)OCC(=O)[C@@]12OC(CCC)O[C@@H]1C[C@H]1[C@@H]3CCC4=CC(=O)C=C[C@]4(C)[C@H]3[C@@H](O)C[C@@]12C` (some centres unmarked) [Budesonide-21-palmitate]?
**A.** inhibition in vivo at 0.335 µmol/kg [1, 9]: 100%; inhibition in vivo at 0.335 µmol/kg [1, 10]: 37%; Body weight gain in rel. to control [2, 8]: -1.4; % inhib. compared to control group, spleen [2, 8]: 4%

**Q.** Which results are given for `CCCCC(=O)OCC(=O)[C@@]12OC(CCC)O[C@@H]1C[C@H]1[C@@H]3CCC4=CC(=O)C=C[C@]4(C)[C@H]3[C@@H](O)C[C@@]12C` (some centres unmarked) [Budesonide-21-valerate]?
**A.** inhibition in vivo at 0.335 µmol/kg [1, 9]: 21%; inhibition in vivo at 0.335 µmol/kg [1, 10]: 22%; reduction of edema in left lung / protection of left lung [1]: up to 38%; Body weight gain in rel. to control [2, 8]: -0.8; % inhib. compared to control group, spleen [2, 8]: -1%

**Q.** What does the source list for `CCCC1O[C@@H]2C[C@H]3[C@@H]4CCC5=CC(=O)C=C[C@]5(C)[C@H]4[C@@H](O)C[C@]3(C)[C@]2(C(=O)CO)O1` (some centres unmarked) [Budesonide]?
**A.** inhibition in vivo at 0.335 µmol/kg [1, 9]: 38%; inhibition in vivo at 0.335 µmol/kg [1, 10]: 30%; reduction of edema in left lung / protection of left lung [1]: up to 38%; Body weight gain in rel. to control [2, 8]: 1.6

**Q.** Which results are given for `CCCCCCCCCCCCCCCC(=O)OCC(=O)[C@@]1(OC(=O)CC)[C@H](C)C[C@H]2[C@@H]3CCC4=CC(=O)C=C[C@]4(C)[C@@]3(F)[C@@H](O)C[C@@]21C` [Dexamethasone-21-palmitate-17-propionate]?
**A.** inhibition in vivo at 0.335 µmol/kg [1, 9]: 104%; inhibition in vivo at 0.335 µmol/kg [1, 10]: 44%; Body weight gain in rel. to control [2, 8]: 1.0; % inhib. compared to control group, spleen [2, 8]: 3%

**Q.** Which results are given for `CCCCCCCCCCCCCCCC(=O)OCC(=O)[C@@]1(O)[C@H](C)C[C@H]2[C@@H]3CCC4=CC(=O)C=C[C@]4(C)[C@@]3(F)[C@@H](O)C[C@@]21C` [Dexamethasone-21-palmitate]?
**A.** inhibition in vivo at 0.335 µmol/kg [1, 6]: 127%; inhibition in vivo at 0.335 µmol/kg [1, 7]: 109%; block of left lung edema (in words) [1]: completely blocked the left lung edema; activity in the other lung half (in words) [1]: as high activity in the other lung half; Body weight gain in rel. to control [2, 8]: -10.8; reduction of body weight gain (in words) [2]: significant reduction of body weight gain; reduction of spleen (in words) [2]: significant reduction of body weight gain and to spleen

**Q.** With `CCCCCCCCCCCCCCCC(=O)OCC(=O)[C@@]1(OC(=O)CC)[C@H](C)C[C@H]2[C@@H]3C[C@H](F)C4=CC(=O)C=C[C@]4(C)[C@@]3(F)[C@@H](O)C[C@@]21C` [Flumethasone-21-palmitate-17-propionate] as the compound, how does the inhibition in vivo at 0.0335 µmol/kg [1, 3] read?
**A.** 108%

**Q.** What about the inhibition in vivo at 0.0335 µmol/kg [1, 4] of the same compound?
**A.** 43%

**Q.** What about the “Body weight gain in rel. to control” value [2, 11] of the same compound?
**A.** 2.0

**Q.** And the “% inhib. compared to control group, spleen” value [2, 11]?
**A.** -1%

**Q.** Which inhibition in vivo at 0.0335 µmol/kg [1, 3] does the source give for `CCCCCCCCCCCCCCCC(=O)OCC(=O)[C@@]12OC(C)(C)O[C@@H]1C[C@H]1[C@@H]3C[C@H](F)C4=CC(=O)C=C[C@]4(C)[C@H]3[C@@H](O)C[C@@]12C` [Flunisolide-21-palmitate] here?
**A.** 133%

**Q.** And the inhibition in vivo at 0.0335 µmol/kg [1, 4]?
**A.** 44%

**Q.** And the “Body weight gain in rel. to control” value [2, 11]?
**A.** -2.6

**Q.** What about the “% inhib. compared to control group, spleen” value [2, 11] of the same compound?
**A.** 8%

**Q.** Which results are given for `CCCCCCCCCCCCCCCC(=O)OCC(=O)[C@@]12OC(C)(C)O[C@@H]1C[C@H]1[C@@H]3C[C@H](F)C4=CC(=O)C=C[C@]4(C)[C@@]3(F)[C@@H](O)C[C@@]12C` [Fluocinolone acetonide-21-palmitate]?
**A.** inhibition in vivo at 0.1 µmol/kg [1, 3]: 117%; inhibition in vivo at 0.1 µmol/kg [1, 4]: 95%; block of left lung edema (in words) [1]: completely blocked the left lung edema; activity in the other lung half (in words) [1]: as high activity in the other lung half; Body weight gain in rel. to control [2, 12]: -4.8; % inhib. compared to control group, spleen [2, 12]: 15%; reduction of body weight gain (in words) [2]: significant reduction of body weight gain; reduction of spleen (in words) [2]: significant reduction of body weight gain and to spleen

**Q.** For `CCCCCCCCCCCCCCCC(=O)OCC(=O)[C@@]1(O)CC[C@H]2[C@@H]3CCC4=CC(=O)CC[C@]4(C)[C@H]3[C@@H](O)C[C@@]21C` [Hydrocortisone-21-palmitate], which inhibition in vivo at 0.335 µmol/kg [1, 9] is on record?
**A.** -13%

**Q.** What about the inhibition in vivo at 0.335 µmol/kg [1, 10] of the same compound?
**A.** -7%

**Q.** And the “reduction of edema in left lung / protection of left lung” value [1]?
**A.** up to 38%

**Q.** What about the “Body weight gain in rel. to control” value [2, 8] of the same compound?
**A.** -1
